Reference: article PMC7770057 (Journal of medicinal chemistry, 2020)
“Also recorded” adds a separate entry of the source.

Columns and labels:
MEK1/2 = MEK1/2 protein levels in cells by Western blot; details: HT-29 cells, 0.3, 1 and 3 μM, 24 h
[1] = In vivo mouse PK study, single IP injection; set-up: species or system male Swiss Albino mice; details: mice, single IP 50 mg/kg; for tolerability: no clinical signs or adverse effects observed
HT-29 cells = test: Antiproliferation; details: for GI50: Homo sapiens, HT-29, 72 h, read-out: HT-29 GI50; for antiproliferation potency compared to compound 28: HT-29 cells; for antiproliferation potency improvement over comparator: HT-29, 3 vs 14, 24 vs 3, 25 vs 22, 26 vs 3, 27 vs 23

Row | SMILES | MEK1/2 degradation (Western blot, words) (MEK1/2) | antiproliferation potency compared to compound 28 (HT-29 cells) | also measured
1 | Cc1ncsc1-c1ccc(CNC(=O)[C@@H]2C[C@@H](O)CN2C(=O)[C@@H](NC(=O)CCCCCCCNCCCONC(=O)c2ccc(F)c(F)c2Nc2ccc(I)cc2F)C(C)(C)C)cc1 [Compound 11, (2S,4R)-1-((S)-17-(tert-Butyl)-1-(3,4-difluoro-2-((2-fluoro-4-iodophenyl)amino)phenyl)-1,15-dioxo-3-oxa-2,7,16-triazaoctadecan-18-oyl)-4-hydroxy-N-(4-(4-methylthiazol-5-yl)benzyl)pyrrolidine-2-carboxamide] | effectively degraded MEK1 and MEK2 proteins |  | 
2 | Cc1ncsc1-c1ccc(CNC(=O)[C@@H]2C[C@@H](O)CN2C(=O)[C@@H](NC(=O)CCCCCCCCCNCCCONC(=O)c2ccc(F)c(F)c2Nc2ccc(I)cc2F)C(C)(C)C)cc1 [Compound 13, (2S,4R)-1-((S)-19-(tert-Butyl)-1-(3,4-difluoro-2-((2-fluoro-4-iodophenyl)amino)phenyl)-1,17-dioxo-3-oxa-2,7,18-triazaicosan-20-oyl)-4-hydroxy-N-(4-(4-methylthiazol-5-yl)benzyl)pyrrolidine-2-carboxamide] | effectively degraded MEK1 and MEK2 proteins |  | 
3 | Cc1ncsc1-c1ccc([C@H](C)NC(=O)[C@@H]2C[C@@H](O)CN2C(=O)[C@@H](NC(=O)CCCCCCCCCCN(C)CCCONC(=O)c2ccc(F)c(F)c2Nc2ccc(I)cc2F)C(C)(C)C)cc1 [Compound 24, (2S,4R)-1-((S)-20-(tert-Butyl)-1-(3,4-difluoro-2-((2-fluoro-4-iodophenyl)amino)phenyl)-7-methyl-1,18-dioxo-3-oxa-2,7,19-triazahenicosan-21-oyl)-4-hydroxy-N-((S)-1-(4-(4-methylthiazol-5-yl)phenyl)ethyl)pyrrolidine-2-carboxamide] |  |  | tolerability [1]: very well tolerated
4 | O=C1CCC(N2C(=O)c3ccc(NCCCCCCCNCCCONC(=O)c4ccc(F)c(F)c4Nc4ccc(I)cc4F)cc3C2=O)C(=O)N1 (centres unmarked) [Compound 44, N-(3-((7-((2-(2,6-Dioxopiperidin-3-yl)-1,3-dioxoisoindolin-5-yl)amino)heptyl)amino)propoxy)-3,4-difluoro-2-((2-fluoro-4-iodophenyl)amino)benzamide] | significantly degraded both MEK1 and MEK2 proteins |  | GI50 (HT-29 cells): 300 to 500 nM
5 | O=C1CCC(N2C(=O)c3cccc(NCCCCCCNCCCONC(=O)c4ccc(F)c(F)c4Nc4ccc(I)cc4F)c3C2=O)C(=O)N1 (centres unmarked) [Compound 32, N-(3-((6-((2-(2,6-Dioxopiperidin-3-yl)-1,3-dioxoisoindolin-4-yl)-amino)hexyl)amino)propoxy)-3,4-difluoro-2-((2-fluoro-4-iodophenyl)amino)benzamide] |  | did not improve the antiproliferation potency | 
6 | O=C1CCC(N2C(=O)c3ccc(NCCCCCNCCCONC(=O)c4ccc(F)c(F)c4Nc4ccc(I)cc4F)cc3C2=O)C(=O)N1 (centres unmarked) [Compound 42, N-(3-((5-((2-(2,6-Dioxopiperidin-3-yl)-1,3-dioxoisoindolin-5-yl)amino)pentyl)amino)propoxy)-3,4-difluoro-2-((2-fluoro-4-iodophenyl)amino)benzamide] | significant selectivity at degrading MEK2 over MEK1 |  | GI50 (HT-29 cells): 300 to 500 nM
7 | O=C1CCC(N2C(=O)c3cccc(NCCCCCNCCCONC(=O)c4ccc(F)c(F)c4Nc4ccc(I)cc4F)c3C2=O)C(=O)N1 (centres unmarked) [Compound 31, N-(3-((5-((2-(2,6-Dioxopiperidin-3-yl)-1,3-dioxoisoindolin-4-yl)-amino)pentyl)amino)propoxy)-3,4-difluoro-2-((2-fluoro-4-iodophenyl)amino)benzamide] |  | did not improve the antiproliferation potency | 
8 | O=C1CCC(N2C(=O)c3cccc(NCCCCCCCNCCCONC(=O)c4ccc(F)c(F)c4Nc4ccc(I)cc4F)c3C2=O)C(=O)N1 (centres unmarked) [Compound 33, N-(3-((7-((2-(2,6-Dioxopiperidin-3-yl)-1,3-dioxoisoindolin-4-yl)-amino)heptyl)amino)propoxy)-3,4-difluoro-2-((2-fluoro-4-iodophenyl)amino)benzamide] |  | did not improve the antiproliferation potency | 
9 | Cc1ncsc1-c1ccc([C@H](C)NC(=O)[C@@H]2C[C@@H](O)CN2C(=O)[C@@H](NC(=O)CCCCCCCCCCNCCCONC(=O)c2ccc(F)c(F)c2Nc2ccc(I)cc2F)C(C)(C)C)cc1 [Compound 3] |  |  | antiproliferation potency improvement over comparator (HT-29 cells): 3 fold
10 | O=C1CCC(N2C(=O)c3cccc(NCCNCCCONC(=O)c4ccc(F)c(F)c4Nc4ccc(I)cc4F)c3C2=O)C(=O)N1 (centres unmarked) [Compound 28, N-(3-((2-((2-(2,6-Dioxopiperidin-3-yl)-1,3-dioxoisoindolin-4-yl)-amino)ethyl)amino)propoxy)-3,4-difluoro-2-((2-fluoro-4-iodophenyl)amino)benzamide] | did not show obvious MEK1/2 degradation |  | GI50 (HT-29 cells): 300 to 500 nM
11 | O=C1CCC(N2C(=O)c3ccc(NCCOCCOCCOCCOCCNCCCONC(=O)c4ccc(F)c(F)c4Nc4ccc(I)cc4F)cc3C2=O)C(=O)N1 (centres unmarked) [Compound 49, N-((1-((2-(2,6-Dioxopiperidin-3-yl)-1,3-dioxoisoindolin-5-yl)amino)-3,6,9,12-tetraoxa-15-azaoctadecan-18-yl)oxy)-3,4-di-fluoro-2-((2-fluoro-4-iodophenyl)amino)benzamide] | significantly degraded both MEK1 and MEK2 proteins |  | GI50 (HT-29 cells): 300 to 500 nM
12 | Cc1ncsc1-c1ccc([C@H](C)NC(=O)[C@@H]2C[C@@H](O)CN2C(=O)[C@@H](NC(=O)CCCCCCCCCNCCCCONC(=O)c2ccc(F)c(F)c2Nc2ccc(I)cc2F)C(C)(C)C)cc1 [Compound 25, (2S,4R)-1-((S)-20-(tert-Butyl)-1-(3,4-difluoro-2-((2-fluoro-4-iodophenyl)amino)phenyl)-1,18-dioxo-3-oxa-2,8,19-triazahenicosan-21-oyl)-4-hydroxy-N-((S)-1-(4-(4-methylthiazol-5-yl)phenyl)ethyl)pyrrolidine-2-carboxamide] |  |  | antiproliferation potency improvement over comparator (HT-29 cells): about 4 fold
13 | O=C1CCC(N2C(=O)c3ccc(NCCCCCCCCNCCCONC(=O)c4ccc(F)c(F)c4Nc4ccc(I)cc4F)cc3C2=O)C(=O)N1 (centres unmarked) [Compound 45, N-(3-((8-((2-(2,6-Dioxopiperidin-3-yl)-1,3-dioxoisoindolin-5-yl)amino)octyl)amino)propoxy)-3,4-difluoro-2-((2-fluoro-4-iodophenyl)amino)benzamide] | significantly degraded both MEK1 and MEK2 proteins |  | 
14 | O=C1CCC(N2C(=O)c3cccc(NCCCCCCCCNCCCONC(=O)c4ccc(F)c(F)c4Nc4ccc(I)cc4F)c3C2=O)C(=O)N1 (centres unmarked) [Compound 34, N-(3-((8-((2-(2,6-Dioxopiperidin-3-yl)-1,3-dioxoisoindolin-4-yl)-amino)octyl)amino)propoxy)-3,4-difluoro-2-((2-fluoro-4-iodophenyl)amino)benzamide] |  | did not improve the antiproliferation potency | 
15 | Cc1ncsc1-c1ccc([C@H](C)NC(=O)[C@@H]2C[C@@H](O)CN2C(=O)[C@@H](NC(=O)CCCCCCCCCCCNCCCCONC(=O)c2ccc(F)c(F)c2Nc2ccc(I)cc2F)C(C)(C)C)cc1 [Compound 27, (2S,4R)-1-((S)-22-(tert-Butyl)-1-(3,4-difluoro-2-((2-fluoro-4-iodophenyl)amino)phenyl)-1,20-dioxo-3-oxa-2,8,21-triazatricosan-23-oyl)-4-hydroxy-N-((S)-1-(4-(4-methylthiazol-5-yl)phenyl)ethyl)pyrrolidine-2-carboxamide] |  |  | clearance comparison [1]: cleared more slowly than compound 24; plasma exposure comparison ([1]; 8 h period, 50 mg/kg): better plasma exposure than compound 24; also recorded: higher than that of the previously published MEK degrader 3; tolerability [1]: very well tolerated
16 | O=C1CCC(N2C(=O)c3cccc(NCCCCNCCCONC(=O)c4ccc(F)c(F)c4Nc4ccc(I)cc4F)c3C2=O)C(=O)N1 (centres unmarked) [Compound 30, N-(3-((4-((2-(2,6-Dioxopiperidin-3-yl)-1,3-dioxoisoindolin-4-yl)-amino)butyl)amino)propoxy)-3,4-difluoro-2-((2-fluoro-4-iodophenyl)amino)benzamide] |  | did not improve the antiproliferation potency | 
17 | O=C1CCC(N2C(=O)c3cccc(NCCCNCCCONC(=O)c4ccc(F)c(F)c4Nc4ccc(I)cc4F)c3C2=O)C(=O)N1 (centres unmarked) [Compound 29, N-(3-((3-((2-(2,6-Dioxopiperidin-3-yl)-1,3-dioxoisoindolin-4-yl)-amino)propyl)amino)propoxy)-3,4-difluoro-2-((2-fluoro-4-iodophenyl)amino)benzamide] |  | did not improve the antiproliferation potency | 
18 | Cc1ncsc1-c1ccc([C@H](C)NC(=O)[C@@H]2C[C@@H](O)CN2C(=O)[C@@H](NC(=O)CCCCCCCCCCNCCCCONC(=O)c2ccc(F)c(F)c2Nc2ccc(I)cc2F)C(C)(C)C)cc1 [Compound 26, (2S,4R)-1-((S)-21-(tert-Butyl)-1-(3,4-difluoro-2-((2-fluoro-4-iodophenyl)amino)phenyl)-1,19-dioxo-3-oxa-2,8,20-triazadocosan-22-oyl)-4-hydroxy-N-((S)-1-(4-(4-methylthiazol-5-yl)phenyl)ethyl)pyrrolidine-2-carboxamide] |  |  | antiproliferation potency improvement over comparator (HT-29 cells): ~3 fold
19 | O=C1CCC(N2C(=O)c3ccc(NCCCNCCCONC(=O)c4ccc(F)c(F)c4Nc4ccc(I)cc4F)cc3C2=O)C(=O)N1 (centres unmarked) [Compound 40, N-(3-((3-((2-(2,6-Dioxopiperidin-3-yl)-1,3-dioxoisoindolin-5-yl)amino)propyl)amino)propoxy)-3,4-difluoro-2-((2-fluoro-4-iodophenyl)amino)benzamide] | did not show obvious MEK1/2 degradation |  | GI50 (HT-29 cells): 300 to 500 nM
